Experiments:
[1] = tested on: human embryonic kidney 293 cells; experiment: Cytotoxicity assay (MTT); type: cell-based; conditions: concentration as high as 100 μg/mL, 48 hours
Method: (§1) Human embryonic kidney 293 cells and Hela cells were seeded in triplicate in 96-well plates and grown to log-phase in DMEM medium with 10% FBS. Then, the medium was removed, and the cells were incubated with compounds at various concentrations ranging from 3.125 to 100 μg/mL in DMEM medium without FBS. After incubation for 48 hours, MTT reagent was added for further incubation for 4 hours. After we added 50 μL of DMSO, the absorbance was measured at 570 nm. The IC50 values were calculated based on a concentration-response curve.

Hela cells = experiment: Cytotoxicity assay (MTT); type: cell-based, human; conditions: concentration as high as 100 μg/mL, 48 hours
Method: as §1

## COc1cc(OC)cc(C(=O)N(CCn2ccnc2)c2nc3ccc(OC)cc3s2)c1 [IMB-F4, N-(2-(1H-imidazol-1-yl)ethyl)-3,5-dimethoxy-N-(6-methoxybenzo[d]thiazol-2-yl)benzamide]
[1]
  growth inhibition (toxicity): No growth inhibition
Hela cells
  growth inhibition (toxicity): No growth inhibition
